Source: ChEMBL document CHEMBL3991601, “The target landscape of clinical kinase drugs” (Science, 2017)
Calls of active or inactive are those of the source. Cut-off read from the data, not from the text of the source, for most assays here: actives have a measured Kd and inactives only a lower limit.

Legend:
[1] = target: AP2-associated protein kinase 1 (Homo sapiens, UniProt Q2M2I8)
[2] = target: Serine/threonine-protein kinase/endoribonuclease IRE1 (Homo sapiens, UniProt O75460)
[3] = target: T1, Serine/threonine-protein kinase Nek1 (Homo sapiens, UniProt Q96PY6)
T1 sequence (Q96PY6 whole entry): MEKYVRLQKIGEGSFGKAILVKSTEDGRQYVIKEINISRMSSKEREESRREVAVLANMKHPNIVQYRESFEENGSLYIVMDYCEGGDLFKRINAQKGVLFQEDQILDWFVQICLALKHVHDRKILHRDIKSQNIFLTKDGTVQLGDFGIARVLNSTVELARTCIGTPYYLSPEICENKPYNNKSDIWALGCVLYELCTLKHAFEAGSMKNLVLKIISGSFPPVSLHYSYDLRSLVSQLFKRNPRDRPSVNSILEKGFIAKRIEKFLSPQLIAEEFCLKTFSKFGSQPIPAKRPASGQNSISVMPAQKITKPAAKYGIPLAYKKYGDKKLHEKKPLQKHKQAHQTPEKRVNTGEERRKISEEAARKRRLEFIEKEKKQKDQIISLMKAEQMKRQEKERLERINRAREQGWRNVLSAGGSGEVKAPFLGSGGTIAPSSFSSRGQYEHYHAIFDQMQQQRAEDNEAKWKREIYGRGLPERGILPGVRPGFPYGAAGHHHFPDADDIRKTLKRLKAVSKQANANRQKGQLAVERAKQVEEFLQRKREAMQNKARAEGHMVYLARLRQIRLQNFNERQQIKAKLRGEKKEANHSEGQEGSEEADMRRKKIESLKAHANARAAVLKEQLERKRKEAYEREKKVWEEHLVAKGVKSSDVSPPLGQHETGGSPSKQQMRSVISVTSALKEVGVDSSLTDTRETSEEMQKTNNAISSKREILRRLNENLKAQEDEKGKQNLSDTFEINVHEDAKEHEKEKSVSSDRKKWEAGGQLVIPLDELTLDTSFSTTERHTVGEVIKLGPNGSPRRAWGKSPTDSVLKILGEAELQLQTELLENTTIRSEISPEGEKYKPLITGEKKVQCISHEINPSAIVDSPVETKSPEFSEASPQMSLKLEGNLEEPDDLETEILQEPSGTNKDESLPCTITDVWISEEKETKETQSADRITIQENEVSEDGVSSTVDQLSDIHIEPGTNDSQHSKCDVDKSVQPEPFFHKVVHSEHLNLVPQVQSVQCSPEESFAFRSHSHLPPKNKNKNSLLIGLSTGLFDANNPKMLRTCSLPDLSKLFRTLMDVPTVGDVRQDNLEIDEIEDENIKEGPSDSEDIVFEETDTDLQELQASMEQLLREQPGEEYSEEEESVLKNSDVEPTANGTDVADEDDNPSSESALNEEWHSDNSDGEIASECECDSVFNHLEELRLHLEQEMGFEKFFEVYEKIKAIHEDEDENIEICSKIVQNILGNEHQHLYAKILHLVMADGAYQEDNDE

[4] = target: T2, General transcription and DNA repair factor IIH helicase subunit XPD (Homo sapiens, UniProt P18074); settings: read-out: Kd apparent; k-562, colo 205, sk-n-be(2) and mv-4-11
T2 sequence (P18074 whole entry): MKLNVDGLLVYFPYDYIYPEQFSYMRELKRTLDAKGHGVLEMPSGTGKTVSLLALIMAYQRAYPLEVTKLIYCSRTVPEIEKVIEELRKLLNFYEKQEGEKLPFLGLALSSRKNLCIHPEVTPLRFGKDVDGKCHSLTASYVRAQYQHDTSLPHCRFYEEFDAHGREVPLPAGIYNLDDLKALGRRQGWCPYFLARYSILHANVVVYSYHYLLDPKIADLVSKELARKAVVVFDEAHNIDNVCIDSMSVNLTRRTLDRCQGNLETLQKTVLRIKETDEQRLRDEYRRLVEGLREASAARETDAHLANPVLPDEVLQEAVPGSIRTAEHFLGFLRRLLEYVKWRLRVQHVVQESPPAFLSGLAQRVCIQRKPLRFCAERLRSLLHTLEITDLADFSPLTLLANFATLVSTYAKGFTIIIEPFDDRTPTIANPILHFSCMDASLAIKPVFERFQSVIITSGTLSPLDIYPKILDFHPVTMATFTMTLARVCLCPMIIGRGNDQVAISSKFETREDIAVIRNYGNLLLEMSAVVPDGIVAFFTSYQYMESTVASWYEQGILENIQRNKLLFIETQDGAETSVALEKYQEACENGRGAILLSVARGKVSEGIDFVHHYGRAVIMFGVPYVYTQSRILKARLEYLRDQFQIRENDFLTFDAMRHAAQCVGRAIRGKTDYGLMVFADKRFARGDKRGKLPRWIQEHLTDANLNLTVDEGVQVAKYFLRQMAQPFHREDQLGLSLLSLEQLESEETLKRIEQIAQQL

[5] = target: T3, Serine/threonine-protein kinase Chk1 (Homo sapiens, UniProt O14757)
T3 sequence (O14757 whole entry): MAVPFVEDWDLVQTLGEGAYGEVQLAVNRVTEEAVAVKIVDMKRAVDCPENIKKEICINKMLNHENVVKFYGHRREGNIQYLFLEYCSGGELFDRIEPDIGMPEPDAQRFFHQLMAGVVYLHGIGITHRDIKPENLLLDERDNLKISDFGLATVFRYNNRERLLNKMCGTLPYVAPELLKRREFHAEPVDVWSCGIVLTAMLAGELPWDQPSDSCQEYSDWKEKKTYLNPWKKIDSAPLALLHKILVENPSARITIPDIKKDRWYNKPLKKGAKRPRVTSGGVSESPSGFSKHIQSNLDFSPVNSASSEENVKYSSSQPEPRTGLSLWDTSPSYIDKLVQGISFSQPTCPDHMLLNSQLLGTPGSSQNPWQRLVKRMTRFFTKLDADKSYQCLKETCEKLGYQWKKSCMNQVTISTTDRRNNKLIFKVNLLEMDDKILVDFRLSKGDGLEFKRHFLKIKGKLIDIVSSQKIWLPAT

[6] = target: Casein kinase I isoform delta (Homo sapiens, UniProt P48730)
Rab-like protein 3 = target: T4, Rab-like protein 3 (Homo sapiens, UniProt Q5HYI8)
T4 sequence (Q5HYI8 whole entry): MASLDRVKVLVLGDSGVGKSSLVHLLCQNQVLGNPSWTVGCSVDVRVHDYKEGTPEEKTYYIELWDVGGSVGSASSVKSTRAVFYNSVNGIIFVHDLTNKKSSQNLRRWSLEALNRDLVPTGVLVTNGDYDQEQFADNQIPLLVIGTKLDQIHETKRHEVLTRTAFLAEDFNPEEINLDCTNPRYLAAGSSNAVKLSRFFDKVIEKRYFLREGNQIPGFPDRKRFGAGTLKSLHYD
Note: in the data inactive means no Kd found up to 30 µM.

Chain of AP2-associated protein kinase 1 (Q2M2I8 whole entry): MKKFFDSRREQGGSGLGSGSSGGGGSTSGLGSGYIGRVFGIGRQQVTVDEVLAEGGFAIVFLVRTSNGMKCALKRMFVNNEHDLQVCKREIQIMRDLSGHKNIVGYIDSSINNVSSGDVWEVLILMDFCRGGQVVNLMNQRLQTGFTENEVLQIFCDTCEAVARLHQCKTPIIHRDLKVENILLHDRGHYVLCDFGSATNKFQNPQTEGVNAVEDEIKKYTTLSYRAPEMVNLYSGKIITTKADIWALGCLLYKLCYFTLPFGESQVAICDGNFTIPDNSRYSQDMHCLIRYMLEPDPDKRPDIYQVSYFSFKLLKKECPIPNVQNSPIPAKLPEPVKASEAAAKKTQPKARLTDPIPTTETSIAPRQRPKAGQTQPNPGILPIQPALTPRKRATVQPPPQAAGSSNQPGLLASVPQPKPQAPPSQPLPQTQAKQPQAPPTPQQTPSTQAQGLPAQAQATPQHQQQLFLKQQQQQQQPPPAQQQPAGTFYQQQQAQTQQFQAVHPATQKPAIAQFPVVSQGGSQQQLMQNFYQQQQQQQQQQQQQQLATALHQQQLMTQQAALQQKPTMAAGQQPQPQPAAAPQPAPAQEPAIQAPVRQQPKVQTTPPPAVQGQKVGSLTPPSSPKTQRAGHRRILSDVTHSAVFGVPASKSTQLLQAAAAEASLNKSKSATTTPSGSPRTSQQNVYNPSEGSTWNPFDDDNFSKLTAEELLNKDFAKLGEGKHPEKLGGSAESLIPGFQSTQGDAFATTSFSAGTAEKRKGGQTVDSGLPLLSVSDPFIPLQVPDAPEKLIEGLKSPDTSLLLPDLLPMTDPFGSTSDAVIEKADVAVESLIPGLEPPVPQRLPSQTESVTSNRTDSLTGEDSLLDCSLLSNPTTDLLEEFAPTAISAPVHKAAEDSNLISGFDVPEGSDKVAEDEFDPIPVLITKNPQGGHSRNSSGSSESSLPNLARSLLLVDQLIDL
Chain of Casein kinase I isoform delta (P48730 whole entry, canonical isoform): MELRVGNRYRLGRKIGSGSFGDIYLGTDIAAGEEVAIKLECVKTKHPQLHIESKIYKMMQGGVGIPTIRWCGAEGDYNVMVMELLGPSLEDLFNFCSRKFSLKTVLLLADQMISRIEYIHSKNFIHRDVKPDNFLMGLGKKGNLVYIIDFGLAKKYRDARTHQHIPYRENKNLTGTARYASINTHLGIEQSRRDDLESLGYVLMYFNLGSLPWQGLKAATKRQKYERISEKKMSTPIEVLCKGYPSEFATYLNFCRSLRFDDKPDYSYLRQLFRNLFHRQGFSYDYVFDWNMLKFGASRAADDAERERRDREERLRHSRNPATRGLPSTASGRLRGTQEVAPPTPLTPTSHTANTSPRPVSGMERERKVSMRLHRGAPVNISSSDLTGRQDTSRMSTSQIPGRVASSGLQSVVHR
Chain of Serine/threonine-protein kinase/endoribonuclease IRE1 (O75460 whole entry): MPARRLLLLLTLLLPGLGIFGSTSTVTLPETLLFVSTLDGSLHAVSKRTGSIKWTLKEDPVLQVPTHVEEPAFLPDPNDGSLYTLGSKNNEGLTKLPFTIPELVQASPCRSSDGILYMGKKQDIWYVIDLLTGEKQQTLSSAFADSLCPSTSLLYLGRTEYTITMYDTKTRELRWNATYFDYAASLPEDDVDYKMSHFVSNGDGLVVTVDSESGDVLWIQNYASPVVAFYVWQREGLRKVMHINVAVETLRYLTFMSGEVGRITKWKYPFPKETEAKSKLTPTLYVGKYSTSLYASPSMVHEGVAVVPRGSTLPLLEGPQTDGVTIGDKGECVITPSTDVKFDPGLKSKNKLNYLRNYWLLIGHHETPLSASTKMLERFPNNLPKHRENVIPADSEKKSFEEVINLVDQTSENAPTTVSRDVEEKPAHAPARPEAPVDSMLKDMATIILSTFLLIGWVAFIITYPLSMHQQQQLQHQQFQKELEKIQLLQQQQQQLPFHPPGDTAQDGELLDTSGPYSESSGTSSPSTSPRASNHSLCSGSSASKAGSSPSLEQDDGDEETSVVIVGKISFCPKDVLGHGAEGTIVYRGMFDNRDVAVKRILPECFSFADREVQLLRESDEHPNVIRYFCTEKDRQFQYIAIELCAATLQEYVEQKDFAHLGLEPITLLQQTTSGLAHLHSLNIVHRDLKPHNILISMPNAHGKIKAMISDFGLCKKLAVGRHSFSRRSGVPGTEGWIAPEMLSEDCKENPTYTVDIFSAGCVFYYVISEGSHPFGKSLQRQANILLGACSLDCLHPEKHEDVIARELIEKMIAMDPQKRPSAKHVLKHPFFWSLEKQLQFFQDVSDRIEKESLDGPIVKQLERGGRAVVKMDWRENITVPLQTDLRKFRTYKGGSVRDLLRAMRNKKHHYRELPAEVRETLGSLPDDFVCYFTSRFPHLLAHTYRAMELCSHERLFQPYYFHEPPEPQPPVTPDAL

Compound	Kd [1]	Kd [2]	Kd [3]	Kd [4]	Kd [5]	Kd [6]	Kd (Rab-like protein 3)
CCCCCCCCCCCCCCCCCCOP(=O)([O-])OC1CC[N+](C)(C)CC1 [PERIFOSINE]	> 30 µM (inactive)	> 30 µM (inactive)	> 30 µM (inactive)	> 30 µM (inactive)	> 30 µM (inactive)	> 30 µM (inactive)	> 30 µM (inactive)
Cc1nc(Nc2n[nH]c3c2CN(C(=O)N[C@H](CN(C)C)c2ccccc2)C3(C)C)c2sccc2n1 [PF-03758309]	3.04 µM (active)	> 30 µM (inactive)	> 30 µM (inactive)	0.002 µM (active)	0.21 µM (active)	> 30 µM (inactive)	> 30 µM (inactive)
CO[C@H]1C[C@@H]2CC[C@@H](C)[C@@](O)(O2)C(=O)C(=O)N2CCCC[C@H]2C(=O)O[C@H]([C@H](C)C[C@@H]2CC[C@@H](OP(C)(C)=O)[C@H](OC)C2)CC(=O)[C@H](C)/C=C(\C)[C@@H](O)[C@@H](OC)C(=O)[C@H](C)C[C@H](C)/C=C/C=C/C=C/1C [RIDAFOROLIMUS]	> 30 µM (inactive)	> 30 µM (inactive)	> 30 µM (inactive)	> 30 µM (inactive)	> 30 µM (inactive)	> 30 µM (inactive)	> 30 µM (inactive)
N#CC1(c2ccc(NC(=O)c3cccnc3NCc3ccncc3)cc2)CCCC1 [RIVOCERANIB]	> 30 µM (inactive)	> 30 µM (inactive)	> 30 µM (inactive)	> 30 µM (inactive)	> 30 µM (inactive)	> 30 µM (inactive)	> 30 µM (inactive)
O=c1[nH]ccc2cc(OC3CCNCC3)ccc12 [SAR-407899 FREE BASE]	0.012 µM (active)	> 30 µM (inactive)	> 30 µM (inactive)	> 30 µM (inactive)	> 30 µM (inactive)	> 30 µM (inactive)	> 30 µM (inactive)
CN1CCN(CCOc2cc(OC3CCOCC3)c3c(Nc4c(Cl)ccc5c4OCO5)ncnc3c2)CC1 [SARACATINIB]	> 30 µM (inactive)	> 30 µM (inactive)	> 30 µM (inactive)	> 30 µM (inactive)	> 30 µM (inactive)	> 30 µM (inactive)	> 30 µM (inactive)
CO[C@H]1C[C@@H]2CC[C@@H](C)[C@@](O)(O2)C(=O)C(=O)N2CCCC[C@H]2C(=O)O[C@H]([C@H](C)C[C@@H]2CC[C@@H](OC(=O)C(C)(CO)CO)[C@H](OC)C2)CC(=O)[C@H](C)/C=C(\C)[C@@H](O)[C@@H](OC)C(=O)[C@H](C)C[C@H](C)/C=C/C=C/C=C/1C [TEMSIROLIMUS]	> 30 µM (inactive)	> 30 µM (inactive)	> 30 µM (inactive)	> 30 µM (inactive)	> 30 µM (inactive)	> 30 µM (inactive)	> 30 µM (inactive)
COc1cc2c(Nc3ccc(Cl)c(Cl)c3F)ncnc2cc1OC[C@@H]1C[C@@H]2CN(C)C[C@@H]2C1 [TESEVATINIB]	> 30 µM (inactive)	> 30 µM (inactive)	> 30 µM (inactive)	> 30 µM (inactive)	> 30 µM (inactive)	> 30 µM (inactive)	> 30 µM (inactive)
O=C(Cc1ccc(-c2ccc(OCCN3CCOCC3)cc2)cn1)NCc1ccccc1 [TIRBANIBULIN]	> 30 µM (inactive)	> 30 µM (inactive)	> 30 µM (inactive)	> 30 µM (inactive)	> 30 µM (inactive)	> 30 µM (inactive)	> 30 µM (inactive)
O=C1NC(=O)[C@@H](c2cn3c4c(cccc24)CCC3)[C@@H]1c1c[nH]c2ccccc12 [TIVANTINIB]	> 30 µM (inactive)	> 30 µM (inactive)	> 30 µM (inactive)	> 30 µM (inactive)	> 30 µM (inactive)	> 30 µM (inactive)	> 30 µM (inactive)
C[C@@H](NC(=O)c1ncnc(N)c1Cl)c1ncc(C(=O)Nc2cc(C(F)(F)F)c(Cl)cn2)s1 [TOVORAFENIB]	> 30 µM (inactive)	> 30 µM (inactive)	> 30 µM (inactive)	> 30 µM (inactive)	> 30 µM (inactive)	> 30 µM (inactive)	> 30 µM (inactive)
Cc1cc(Nc2ncnc3ccc(NC4=NC(C)(C)CO4)cc23)ccc1Oc1ccn2ncnc2c1 [TUCATINIB]	> 30 µM (inactive)	> 30 µM (inactive)	> 30 µM (inactive)	> 30 µM (inactive)	> 30 µM (inactive)	> 30 µM (inactive)	> 30 µM (inactive)
Cn1ncc(Cl)c1-c1cc(C(=O)N[C@H](CN)Cc2ccc(F)c(F)c2)oc1Cl [UPROSERTIB]	> 30 µM (inactive)	> 30 µM (inactive)	> 30 µM (inactive)	> 30 µM (inactive)	> 30 µM (inactive)	> 30 µM (inactive)	> 30 µM (inactive)
CC(C)c1cc(CNc2nc(Nc3cc(C4CC4)[nH]n3)cc(N3CCN(C)CC3)n2)on1 [XL-228]	0.138 µM (active)	> 30 µM (inactive)	> 30 µM (inactive)	0.953 µM (active)	> 30 µM (inactive)	> 30 µM (inactive)	> 30 µM (inactive)
C[C@@H](N)c1ccc(C(=O)Nc2ccnc3[nH]ccc23)cc1 [Y-39983]	0.122 µM (active)	> 30 µM (inactive)	> 30 µM (inactive)	> 30 µM (inactive)	> 30 µM (inactive)	> 30 µM (inactive)	> 30 µM (inactive)
CN1C/C=C/CCOc2cccc(c2)-c2ccnc(n2)Nc2cccc(c2)C1 [ZOTIRACICLIB]	> 30 µM (inactive)	> 30 µM (inactive)	> 30 µM (inactive)	0.319 µM	> 30 µM (inactive)	2.38 µM (active)	> 30 µM (inactive)
